The target in test [1] is 5-hydroxytryptamine receptor 2A (Homo sapiens, UniProt P28223). The experiment in a line: Displacement of [3H]ketanserin from human 5HT2A receptor expressed in cells. The test is classed as cell-based.
Test [2] addresses Histamine H1 receptor (Homo sapiens, UniProt P35367). As to the kind of experiment: Displacement of [3H]chlorphniramine from human histamine H1 receptor expressed in cells. The format is cell-based.

pKi: −log10 of the molar value.

Sequence of 5-hydroxytryptamine receptor 2A (P28223 whole entry): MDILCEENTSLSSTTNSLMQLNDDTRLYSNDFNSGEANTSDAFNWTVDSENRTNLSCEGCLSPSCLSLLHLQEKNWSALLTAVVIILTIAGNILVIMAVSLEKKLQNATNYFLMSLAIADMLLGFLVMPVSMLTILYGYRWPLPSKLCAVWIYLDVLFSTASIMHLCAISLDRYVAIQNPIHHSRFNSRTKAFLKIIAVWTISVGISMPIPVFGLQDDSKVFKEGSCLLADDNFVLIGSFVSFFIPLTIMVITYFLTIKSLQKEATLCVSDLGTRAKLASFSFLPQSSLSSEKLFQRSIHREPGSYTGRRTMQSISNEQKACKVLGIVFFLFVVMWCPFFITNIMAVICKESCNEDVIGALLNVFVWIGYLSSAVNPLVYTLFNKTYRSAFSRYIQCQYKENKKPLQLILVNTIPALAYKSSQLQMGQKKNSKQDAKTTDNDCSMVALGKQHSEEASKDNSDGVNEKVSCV
Sequence of Histamine H1 receptor (P35367 whole entry): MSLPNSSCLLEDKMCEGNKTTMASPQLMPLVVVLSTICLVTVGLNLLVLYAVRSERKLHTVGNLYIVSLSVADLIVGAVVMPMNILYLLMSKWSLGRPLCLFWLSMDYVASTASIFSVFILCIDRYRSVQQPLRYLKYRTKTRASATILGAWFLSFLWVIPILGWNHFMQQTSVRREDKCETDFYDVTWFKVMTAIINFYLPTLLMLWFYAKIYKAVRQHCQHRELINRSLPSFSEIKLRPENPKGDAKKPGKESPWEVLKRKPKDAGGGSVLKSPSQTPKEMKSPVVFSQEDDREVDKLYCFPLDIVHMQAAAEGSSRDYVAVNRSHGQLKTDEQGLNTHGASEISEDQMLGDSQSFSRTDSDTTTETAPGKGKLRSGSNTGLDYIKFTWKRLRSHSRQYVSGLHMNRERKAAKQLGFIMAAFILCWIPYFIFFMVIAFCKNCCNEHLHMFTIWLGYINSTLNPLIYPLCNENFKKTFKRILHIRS

Turning to `CN(C)CC(c1ccccc1)c1ccccc1`, the figures for the negative-log Ki (pKi) in test [1] and in test [2] were 5.13 and 5.29, respectively.
Compound `NCC(c1ccccc1)c1ccccc1` had a pKi in test [2] of under 5.00.
As for `CNCC(c1ccccc1)c1ccccc1`, the negative-log Ki (pKi) in test [1] and in test [2] was under 5.00 in each case.
`NCCCC1c2ccccc2Cc2ccccc21` had a negative logarithm of the Ki (pKi) in test [2] of 6.76.
On to `NCCC1c2ccccc2Cc2ccccc21`, for which the pKi in test [2] is 6.86.
Same read-out and setting: then `CN(C)CC1c2ccccc2Cc2ccccc21`, with 7.60; and `CN(C)CCCC1c2ccccc2Cc2ccccc21`, with 9.30; and `CNCCCC1c2ccccc2Cc2ccccc21`, with 8.52.
On the same count and under the same terms, then `NCC1c2ccccc2Cc2ccccc21`, with 6.71.
On to `CNCCC(c1ccccc1)c1ccccc1`, for which the figures for the negative-log Ki (pKi) in test [1] and in test [2] were 5.82 and 7.19, respectively.
As to `NCCCC(c1ccccc1)c1ccccc1`, the pKi in test [1] was 5.59; in test [2], 5.78.
On the same counts, the results for `CN(C)CCC1c2ccccc2Cc2ccccc21` are 7.08 and 8.22.
For `CNCCCC(c1ccccc1)c1ccccc1` the same measures were 6.12 and 6.41.
On the same counts, the results for `CNCCC1c2ccccc2Cc2ccccc21` are 7.04 and 7.32.
Consider `CN(C)CCCC(c1ccccc1)c1ccccc1`, for which the pKi in test [1] was 5.94; in test [2], 7.15.
For `NCCC(c1ccccc1)c1ccccc1` the same measures were under 5.00 and 5.56.
As to `CN(C)CCC(c1ccccc1)c1ccccc1`, the pKi in test [1] was 5.79; in test [2], 7.12.
`CNCC1c2ccccc2Cc2ccccc21`: the pKi in test [2] was 6.72.

The term pKi denotes the negative decadic logarithm of the Ki, by convention in mol/L. Higher therefore signals a low Ki.

The record behind these values is ChEMBL document CHEMBL1152569, “Synthesis, structure-affinity relationships, and modeling of AMDA analogs at 5-HT2A and H1 receptors: structural factors contributing to selectivity” (Bioorg Med Chem, 2009).
